Results as given in US20230102554A1 (GB002, INC., priority 2019, published 2023).

Key:
[1] = biological target: T1, Human PDGFRα, cytoplasmic domain (GST-PDGFRα) (Homo sapiens, UniProt P16234); experiment: Human PDGFRα biochemical inhibition assay (off-chip Mobility Shift Assay)
T1 construct: made in house

[2] = biological target: T2, Human PDGFRβ, cytoplasmic domain (GST-PDGFRβ) (Homo sapiens, UniProt P09619); experiment: Human PDGFRβ biochemical inhibition assay (off-chip Mobility Shift Assay)
T2 construct: made in house
T2 sequence (P09619 with tags, fused parts or gaps): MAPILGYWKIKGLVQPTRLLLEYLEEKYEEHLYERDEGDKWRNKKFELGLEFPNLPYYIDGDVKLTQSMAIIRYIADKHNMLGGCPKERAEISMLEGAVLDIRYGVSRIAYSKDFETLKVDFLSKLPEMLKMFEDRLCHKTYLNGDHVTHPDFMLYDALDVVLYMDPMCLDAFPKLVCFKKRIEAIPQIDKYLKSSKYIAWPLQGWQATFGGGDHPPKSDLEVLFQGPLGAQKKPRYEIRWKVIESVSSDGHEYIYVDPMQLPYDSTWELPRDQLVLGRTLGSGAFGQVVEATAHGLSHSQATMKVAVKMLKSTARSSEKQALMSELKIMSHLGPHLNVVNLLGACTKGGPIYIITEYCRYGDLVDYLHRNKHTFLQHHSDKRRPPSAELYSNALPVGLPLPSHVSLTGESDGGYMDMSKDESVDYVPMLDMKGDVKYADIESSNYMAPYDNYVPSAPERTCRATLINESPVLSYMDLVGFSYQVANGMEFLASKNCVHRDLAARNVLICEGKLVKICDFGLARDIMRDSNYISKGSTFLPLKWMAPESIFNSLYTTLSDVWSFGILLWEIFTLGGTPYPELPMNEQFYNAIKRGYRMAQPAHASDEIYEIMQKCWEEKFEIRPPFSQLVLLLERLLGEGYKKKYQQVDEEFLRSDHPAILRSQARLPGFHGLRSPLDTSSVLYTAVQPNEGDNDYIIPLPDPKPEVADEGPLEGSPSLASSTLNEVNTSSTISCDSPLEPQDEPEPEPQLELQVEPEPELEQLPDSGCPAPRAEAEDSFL
Procedure, shortened: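 GST-tagged cytoplasmic domain (aa 557-1106) from baculovirus was incubated 1 h at room temperature with compound, CSKtide, ATP at Km and Mg²⁺ in HEPES buffer, pH 7.5. Phosphorylated and unphosphorylated peptide were separated by off-chip mobility shift, and the product ratio P/(P+S) gave percent inhibition.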

T1 sequence (P16234 550-1089 T674I): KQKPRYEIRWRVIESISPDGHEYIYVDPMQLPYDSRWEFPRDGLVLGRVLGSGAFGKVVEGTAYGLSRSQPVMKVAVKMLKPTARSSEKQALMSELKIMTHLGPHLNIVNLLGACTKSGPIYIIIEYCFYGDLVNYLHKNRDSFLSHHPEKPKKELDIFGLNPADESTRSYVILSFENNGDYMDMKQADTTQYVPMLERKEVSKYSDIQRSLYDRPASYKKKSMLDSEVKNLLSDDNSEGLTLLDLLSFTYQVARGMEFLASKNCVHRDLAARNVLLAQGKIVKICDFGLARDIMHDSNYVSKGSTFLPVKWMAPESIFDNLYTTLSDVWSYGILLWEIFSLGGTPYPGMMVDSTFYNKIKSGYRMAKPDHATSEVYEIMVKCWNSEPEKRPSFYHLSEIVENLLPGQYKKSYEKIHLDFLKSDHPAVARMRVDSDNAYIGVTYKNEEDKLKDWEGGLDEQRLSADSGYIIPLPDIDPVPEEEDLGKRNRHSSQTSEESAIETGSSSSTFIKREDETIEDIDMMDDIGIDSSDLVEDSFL

IC50 [1] [nM]	IC50 [2] [nM]	SMILES
< 300	< 300	Cc1cc(C(=O)Nc2cccc([C@H](C)Nc3cnc4cnn(C)c4n3)c2)cnc1C(F)F [Compound 190, (S)-6-(difluoromethyl)-5-methyl-N-(3-(1-((1-methyl-1H-pyrazolo[3,4-b]pyrazin-6-yl)amino)ethyl)phenyl) nicotinamide]
< 300	< 300	CCn1cc2ncc(N[C@@H](C)c3cc(NC(=O)c4ccc(CN5CCCC5)c(C)c4)ccc3C)nc2n1 [Compound 522, (S)-N-(3-(1-((2-ethyl-2H-pyrazolo[3,4-b]pyrazin-6-yl)amino)ethyl)-4-methylphenyl)-3-methyl-4-(pyrrolidin-1-ylmethyl)benzamide]
< 300	≥ 1000	C[C@H](Nc1cnc2cnn(C)c2n1)c1cccc(NC(=O)Cc2cnn(C)c2)c1 [Compound 629, (S)-2-(1-methyl-1H-pyrazol-4-yl)-N-(3-(1-((1-methyl-1H-pyrazolo[3,4-b]pyrazin-6-yl)amino)ethyl)phenyl)acetamide]
< 300	< 300	CCn1cc2ncc(N[C@@H](C)c3cc(NC(=O)c4cnc5ccccc5c4)ccc3F)nc2n1 [Compound 63, (S)-N-(3-(1-((2-ethyl-2H-pyrazolo[3,4-b]pyrazin-6-yl)amino)ethyl)-4-fluorophenyl) quinoline-3-carboxamide]
< 300	≥ 1000	C[C@H](Nc1cnc2cn[nH]c2n1)c1cccc(NC(=O)c2cncc(CO)c2)c1 [Compound 92, (S)-N-(3-(1-((1H-pyrazolo[3,4-b]pyrazin-6-yl)amino)ethyl)phenyl)-5-(hydroxymethyl) nicotinamide]
< 300	< 300	CC(C)c1cc(C(=O)Nc2cccc([C@H](C)Nc3cnc4cnn(C)c4n3)c2)no1 [Compound 142, (S)-5-isopropyl-N-(3-(1-((1-methyl-1H-pyrazolo[3,4-b]pyrazin-6-yl)amino)ethyl)phenyl)isoxazole-3-carboxamide]
< 300	300 to 1000	CCn1cc2ncc(N[C@@H](C)c3cccc(NC(=O)Nc4cncc(C)c4)c3)nc2n1 [Compound 732, (S)-1-(3-(1-((2-ethyl-2H-pyrazolo[3,4-b]pyrazin-6-yl)amino)ethyl)phenyl)-3-(5-methylpyridin-3-yl)urea]
≥ 1000	300 to 1000	C[C@H](Nc1cnc2[nH]cc(-c3cnn(C)c3)c2n1)c1cccc(NC(=O)[C@@H]2C[C@H]2C(F)(F)F)c1 [Compound 589, (1R,2R)-N-(3-((S)-1-((7-(1-methyl-1H-pyrazol-4-yl)-5H-pyrrolo[2,3-b]pyrazin-2-yl)amino)ethyl)phenyl)-2-(trifluoromethyl)cyclopropane-1-carboxamide]
< 300	≥ 1000	CCn1cc2ncc(N[C@@H](C)c3cc(NC(=O)Cc4ccc(C5CC5)nc4)ccc3C)nc2n1 [Compound 665, (S)-2-(6-cyclopropylpyridin-3-yl)-N-(3-(1-((2-ethyl-2H-pyrazolo[3,4-b]pyrazin-6-yl)amino)ethyl)-4-methylphenyl) acetamide]
< 300	< 300	CCc1c[nH]c2ncc(N[C@@H](C)c3cccc(NC(=O)c4cncc(C)c4)c3)nc12 [Compound 564, (S)-N-(3-(1-((7-ethyl-5H-pyrrolo[2,3-b]pyrazin-2-yl)amino)ethyl)phenyl)-5-methylnicotinamide]
< 300	< 300	CCn1cc2ncc(N[C@@H](C)c3cc(NC(=O)c4ccc(CN5CCN(C)CC5)c(C(F)(F)F)c4)ccc3F)nc2n1 [Compound 444, (S)-N-(3-(1-((2-ethyl-2H-pyrazolo[3,4-b]pyrazin-6-yl)amino)ethyl)-4-fluorophenyl)-4-((4-methylpiperazin-1-yl)methyl)-3-(trifluoromethyl) benzamide]
300 to 1000	≥ 1000	COc1ccc(NC(=O)c2cncc(C)c2)cc1CNc1cnc2ccccc2n1 [Compound 43, N-(4-methoxy-3-((quinoxalin-2-ylamino)methyl)phenyl)-5-methylnicotinamide]
< 300	< 300	Cc1cc(C(=O)Nc2cccc([C@H](C)Nc3cnc4cnn(C)c4n3)c2)ccc1C#N [Compound 193, (S)-4-cyano-3-methyl-N-(3-(1-((1-methyl-1H-pyrazolo[3,4-b]pyrazin-6-yl)amino)ethyl)phenyl)benzamide]
< 300	300 to 1000	CCn1cc2ncc(N[C@@H](C)c3cccc(NC(=O)c4cnc(NC(C)C)c(C)c4)c3)nc2n1 [Compound 371, (S)-N-(3-(1-((2-ethyl-2H-pyrazolo[3,4-b]pyrazin-6-yl)amino)ethyl)phenyl)-6-(isopropylamino)-5-methylnicotinamide]
< 300	< 300	CCn1cc2ncc(N[C@@H](C)c3cccc(NC(=O)c4cnn(CC5CC5)c4)c3)nc2n1 [Compound 300, (S)-1-(cyclopropylmethyl)-N-(3-(1-((2-ethyl-2H-pyrazolo[3,4-b]pyrazin-6-yl)amino)ethyl)phenyl)-1H-pyrazole-4-carboxamide]
< 300	< 300	CCn1cc2ncc(N[C@@H](C)c3cc(NC(=O)Cc4ccc(F)c(C)n4)ccc3F)nc2n1 [Compound 674, (S)-N-(3-(1-((2-ethyl-2H-pyrazolo[3,4-b]pyrazin-6-yl)amino)ethyl)-4-fluorophenyl)-2-(5-fluoro-6-methylpyridin-2-yl) acetamide]
< 300	< 300	Cc1cncc(C(=O)Nc2cccc([C@H](C)Nc3cnc4cccc(F)c4c3)c2)c1 [Compound 29, (S)-N-(3-(1-((5-fluoroquinolin-3-yl)amino)ethyl)phenyl)-5-methylnicotinamide]
< 300	< 300	CCn1cc2ncc(N[C@@H](C)c3cccc(NC(=O)c4cnc(N5CCCC5)c(C)c4)c3)nc2n1 [Compound 323, (S)-N-(3-(1-((2-ethyl-2H-pyrazolo[3,4-b]pyrazin-6-yl)amino)ethyl)phenyl)-5-methyl-6-(pyrrolidin-1-yl)nicotinamide]
< 300	< 300	CC(C)c1cc(C(=O)Nc2cccc([C@H](C)Nc3cnc4[nH]ccc4n3)c2)no1 [Compound 553, (S)-N-(3-(1-((5H-pyrrolo[2,3-b]pyrazin-2-yl)amino)ethyl)phenyl)-5-isopropylisoxazole-3-carboxamide]
< 300	< 300	Cc1cncc(C(=O)Nc2cccc([C@H](C)Nc3cnc4ccoc4n3)c2)c1 [Compound 605, (S)-N-(3-(1-(furo[2,3-b]pyrazin-3-ylamino)ethyl)phenyl)-5-methylnicotinamide]
< 300	< 300	CCn1cc2ncc(N[C@@H](C)c3cc(NC(=O)c4cnc(N5CCN(C)CC5)c(C)c4)ccc3C)nc2n1 [Compound 514, (S)-N-(3-(1-((2-ethyl-2H-pyrazolo[3,4-b]pyrazin-6-yl)amino)ethyl)-4-methylphenyl)-5-methyl-6-(4-methylpiperazin-1-yl)nicotinamide]
< 300	< 300	Cc1cc(C(=O)Nc2cccc([C@H](C)Nc3cnc4cnn(C)c4n3)c2)cnc1OC(C)C [Compound 248, (S)-6-isopropoxy-5-methyl-N-(3-(1-((1-methyl-1H-pyrazolo[3,4-b]pyrazin-6-yl)amino)ethyl)phenyl) nicotinamide]
< 300	< 300	C[C@H](Nc1cnc2[nH]ccc2n1)c1cc(NC(=O)c2ccc(C3CC3)nc2)ccc1F [Compound 599, (S)-N-(3-(1-((5H-pyrrolo[2,3-b]pyrazin-2-yl)amino)ethyl)-4-fluorophenyl)-6-cyclopropylnicotinamide]
< 300	≥ 1000	CCn1cc2ncc(N[C@@H](C)c3cccc(NC(=O)c4ccc(CN(C)C)cc4)c3)nc2n1 [Compound 373, (S)-4-((dimethylamino)methyl)-N-(3-(1-((2-ethyl-2H-pyrazolo[3,4-b]pyrazin-6-yl)amino)ethyl)phenyl)benzamide]
< 300	300 to 1000	COCCn1ccc2ncc(N[C@@H](C)c3cccc(NC(=O)c4cncc(C)c4)c3)nc21 [Compound 84, (S)-N-(3-(1-((5-(2-methoxyethyl)-5H-pyrrolo [2,3-b]pyrazin-3-yl)amino)ethyl)phenyl)-5-methylnicotinamide]
< 300	< 300	CCn1cc2ncc(N[C@@H](C)c3cccc(NC(=O)c4ccc(CN5CC6(COC6)C5)c(Cl)c4)c3)nc2n1 [Compound 415, (S)-4-((2-oxa-6-azaspiro[3.3]heptan-6-yl)methyl)-3-chloro-N-(3-(1-((2-ethyl-2H-pyrazolo[3,4-b]pyrazin-6-yl)amino)ethyl)phenyl)benzamide]
< 300	< 300	CCn1cc2ncc(N[C@@H](C)c3cccc(NC(=O)Cc4ccc(F)c(Cl)c4)c3)nc2n1 [Compound 631, (S)-2-(3-chloro-4-fluorophenyl)-N-(3-(1-((2-ethyl-2H-pyrazolo[3,4-b]pyrazin-6-yl)amino)ethyl)phenyl)acetamide]
< 300	< 300	CCn1cc2ncc(N[C@@H](C)c3cc(NC(=O)c4ccc(CN5CCOCC5)c(C(F)(F)F)c4)ccc3F)nc2n1 [Compound 428, (S)-N-(3-(1-((2-ethyl-2H-pyrazolo[3,4-b]pyrazin-6-yl)amino)ethyl)-4-fluorophenyl)-4-(morpholinomethyl)-3-(trifluoromethyl)benzamide]
< 300	< 300	Cc1cc2ncc(N[C@@H](C)c3cc(NC(=O)c4ccc(C(F)(F)F)nc4)ccc3F)nc2s1 [Compound 615, (S)-N-(4-fluoro-3-(1-((6-methylthieno[2,3-b]pyrazin-3-yl)amino)ethyl)phenyl)-6-(trifluoromethyl)nicotinamide]
< 300	< 300	Cc1cc(C(=O)Nc2cccc([C@H](C)Nc3cnc4cnn(C)c4n3)c2)ccc1CN1CCOCC1 [Compound 209, (S)-3-methyl-N-(3-(1-((1-methyl-1H-pyrazolo[3,4-b]pyrazin-6-yl)amino)ethyl)phenyl)-4-(morpholinomethyl) benzamide]
